The record followed here is patent US20020026053A1, “Novel 3-(substituted) -2- indolinones compounds and use thereof as inhibitors of protein kinase activity” (priority 1997, published 2002).

SMILES strings stand for the structures.

The test has as its target T1, Met receptor (EGFR/Met chimeric cells, EMR) (Homo sapiens, UniProt P08581).
T1 construct: expressed in transfected cells; the other entry of the earlier key: EGFR (P00533, Epidermal growth factor receptor)
As to the kind of experiment: Met Autophosphorylation Assay. It is filed as biochemical. The essentials: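 Transiently transfected EGFR/Met chimeric (EMR) cells were lysed in HNTG with 1 mM PMSF. Met was captured on plates coated with goat anti-rabbit IgG, then rabbit anti-Met (C-28), using 90 μg lysate/100 μl for 60 min at room temperature. Phosphotyrosine was read by ELISA.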

T1 sequence (P08581 with tags, fused parts or gaps): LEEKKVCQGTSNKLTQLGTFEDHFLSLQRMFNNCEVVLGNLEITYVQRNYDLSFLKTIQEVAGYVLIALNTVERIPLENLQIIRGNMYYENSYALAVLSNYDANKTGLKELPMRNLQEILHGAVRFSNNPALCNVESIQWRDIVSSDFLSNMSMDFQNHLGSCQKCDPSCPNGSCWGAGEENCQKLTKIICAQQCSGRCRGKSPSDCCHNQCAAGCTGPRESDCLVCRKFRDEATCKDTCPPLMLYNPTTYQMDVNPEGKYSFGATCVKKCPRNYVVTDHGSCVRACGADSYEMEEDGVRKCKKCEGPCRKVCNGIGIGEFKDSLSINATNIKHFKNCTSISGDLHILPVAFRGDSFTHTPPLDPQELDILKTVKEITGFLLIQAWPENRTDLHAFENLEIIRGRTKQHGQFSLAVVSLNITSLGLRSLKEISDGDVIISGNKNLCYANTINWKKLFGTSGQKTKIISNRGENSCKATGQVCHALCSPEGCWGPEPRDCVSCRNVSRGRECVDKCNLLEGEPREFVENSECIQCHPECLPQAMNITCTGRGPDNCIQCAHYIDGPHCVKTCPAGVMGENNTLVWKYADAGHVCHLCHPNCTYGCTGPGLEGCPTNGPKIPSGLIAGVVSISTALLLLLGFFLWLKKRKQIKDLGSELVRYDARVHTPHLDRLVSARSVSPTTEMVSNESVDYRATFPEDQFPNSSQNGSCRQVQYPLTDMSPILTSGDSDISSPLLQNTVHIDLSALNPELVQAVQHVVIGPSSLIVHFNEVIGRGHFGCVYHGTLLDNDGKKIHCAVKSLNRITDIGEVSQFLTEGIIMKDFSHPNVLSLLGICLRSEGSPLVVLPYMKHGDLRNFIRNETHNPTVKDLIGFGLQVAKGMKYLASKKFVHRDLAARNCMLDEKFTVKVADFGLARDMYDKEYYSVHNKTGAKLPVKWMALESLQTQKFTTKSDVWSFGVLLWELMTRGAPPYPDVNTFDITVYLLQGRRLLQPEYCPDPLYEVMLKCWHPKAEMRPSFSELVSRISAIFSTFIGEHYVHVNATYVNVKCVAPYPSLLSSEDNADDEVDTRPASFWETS

For the compound `Cc1c(Br)cc(Br)c2c1C(=Cc1ccc(O)cc1)C(=O)N2` [10719/H07], the “Met Kinase % Inhibition (P.130)” value is on record as 22.9%.

With `Cc1c(Br)cc(Br)c2c1C(=Cc1ccc(N(C)C)cc1)C(=O)N2` [10719/H08], the “Met Kinase % Inhibition (P.130)” value was found to be 20.0%.

Take `Cc1c(Br)cc(Br)c2c1C(=Cc1ccc(F)cc1Cl)C(=O)N2` [10719/H09]: the “Met Kinase % Inhibition (P.130)” value worked out at 5.8%.

In the case of `Cc1c(Br)cc(Br)c2c1C(=Cc1cccc([N+](=O)[O-])c1)C(=O)N2` [10719/H10], the “Met Kinase % Inhibition (P.130)” value is −5.7%.

For `Cc1c(Br)cc(Br)c2c1C(=Cc1ccc(F)cc1C(F)(F)F)C(=O)N2` [10719/H11], the “Met Kinase % Inhibition (P.130)” value came to 50.5%.

Regarding `Cc1c(Br)cc(Br)c2c1C(=Cc1c(F)cc(F)cc1F)C(=O)N2` [10720/H02], the “Met Kinase % Inhibition (P.130)” value is recorded as 64.1%.

As to `COc1cc(O)ccc1C=C1C(=O)Nc2c(Br)cc(Br)c(C)c21` [10720/H03], the “Met Kinase % Inhibition (P.130)” value was 40.0%.

Regarding `N#Cc1ccccc1C=C1C(=O)Nc2ccc(CCCl)cc21` [10735/G07], the “Met Kinase % Inhibition (P.130)” value is recorded as 37.1%.

With `O=C1Nc2ccc(CCCl)cc2C1=Cc1c(F)cccc1F` [10735/G08], the “Met Kinase % Inhibition (P.130)” value worked out at 29.9%.

Take `O=C1Nc2ccc(CCCl)cc2C1=Cc1cccc2ccccc12` [10735/G09]: the “Met Kinase % Inhibition (P.130)” value came to 16.8%.

Turning to `O=C1Nc2ccc(CCCl)cc2C1=Cc1ccc(Cl)cc1Cl` [10735/G10], the “Met Kinase % Inhibition (P.130)” value is 37.8%.

Take `O=C1Nc2ccc(CCCl)cc2C1=Cc1ccc(-c2ccccc2)cc1` [10735/G11]: the “Met Kinase % Inhibition (P.130)” value worked out at 23.0%.

On to `Cc1ccccc1C=C1C(=O)Nc2c(Br)cc(Br)c(C)c21` [10735/H02], for which the “Met Kinase % Inhibition (P.130)” value amounted to 29.2%.

`Cc1c(Br)cc(Br)c2c1C(=Cc1ccc(F)c(F)c1)C(=O)N2` [10735/H03]: the “Met Kinase % Inhibition (P.130)” value worked out at 40.8%.

As for `Cc1c(Br)cc(Br)c2c1C(=Cc1cc(F)cc(F)c1)C(=O)N2` [10735/H04], the “Met Kinase % Inhibition (P.130)” value was 42.9%.

With `Cc1c(Br)cc(Br)c2c1C(=Cc1cccc(C(F)(F)F)c1)C(=O)N2` [10735/H05], the “Met Kinase % Inhibition (P.130)” value is given as 49.8%.

Regarding `Cc1c(Br)cc(Br)c2c1C(=Cc1cc(C(F)(F)F)cc(C(F)(F)F)c1)C(=O)N2` [10735/H06], the “Met Kinase % Inhibition (P.130)” value worked out at 57.2%.

In the case of `Cc1c(Br)cc(Br)c2c1C(=Cc1ccccc1C#N)C(=O)N2` [10735/H07], the “Met Kinase % Inhibition (P.130)” value is listed as 48.5%.

For `Cc1c(Br)cc(Br)c2c1C(=Cc1c(F)cccc1F)C(=O)N2` [10735/H08], the “Met Kinase % Inhibition (P.130)” value worked out at 59.2%.

For the compound `Cc1c(Br)cc(Br)c2c1C(=Cc1cccc3ccccc13)C(=O)N2` [10735/H09], the “Met Kinase % Inhibition (P.130)” value was 22.4%.

On to `Cc1c(Br)cc(Br)c2c1C(=Cc1ccc(Cl)cc1Cl)C(=O)N2` [10735/H10], for which the “Met Kinase % Inhibition (P.130)” value is reported as 29.9%.

For the compound `Cc1c(Br)cc(Br)c2c1C(=Cc1ccc(-c3ccccc3)cc1)C(=O)N2` [10735/H11], the “Met Kinase % Inhibition (P.130)” value was found to be 22.8%.

For the compound `O=C1Nc2c(Br)cc(Br)cc2C1=Cc1ccc(Cl)cc1` [10736/A02], the “Met Kinase % Inhibition (P.130)” value was 72.5%.

With `O=C1Nc2c(Br)cc(Br)cc2C1=Cc1ccccc1C(F)(F)F` [10736/A03], the “Met Kinase % Inhibition (P.130)” value stood at 42.6%.

For the compound `Cc1cccc(C=C2C(=O)Nc3c(Br)cc(Br)cc32)c1` [10736/A04], the “Met Kinase % Inhibition (P.130)” value came out at 75.2%.

Take `Cc1ccc(C=C2C(=O)Nc3c(Br)cc(Br)cc32)cc1` [10736/A05]: the “Met Kinase % Inhibition (P.130)” value turned out to be 73.6%.

Turning to `O=C1Nc2c(Br)cc(Br)cc2C1=Cc1cccc(Cl)c1` [10736/A06], the “Met Kinase % Inhibition (P.130)” value was 69.7%.

On to `O=C1Nc2c(Br)cc(Br)cc2C1=Cc1cccc(F)c1` [10736/A07], for which the “Met Kinase % Inhibition (P.130)” value was determined as 55.2%.

For `O=C1Nc2c(Br)cc(Br)cc2C1=Cc1ccccc1F` [10736/A08], the “Met Kinase % Inhibition (P.130)” value was found to be 58.7%.

As to `CCc1ccc(C=C2C(=O)Nc3c(Br)cc(Br)cc32)cc1` [10736/A09], the “Met Kinase % Inhibition (P.130)” value was determined as 69.7%.

With `COc1cccc(C=C2C(=O)Nc3c(Br)cc(Br)cc32)c1` [10736/A10], the “Met Kinase % Inhibition (P.130)” value is 65.0%.

Take `O=C1Nc2c(Br)cc(Br)cc2C1=Cc1ccccc1Cl` [10736/A11]: the “Met Kinase % Inhibition (P.130)” value was 46.1%.

Take `O=C1Nc2ccc(I)cc2C1=Cc1ccc(Cl)cc1` [10736/B02]: the “Met Kinase % Inhibition (P.130)” value stood at 73.6%.

On to `O=C1Nc2ccc(I)cc2C1=Cc1ccccc1C(F)(F)F` [10736/B03], for which the “Met Kinase % Inhibition (P.130)” value came out at 65.5%.

With `Cc1cccc(C=C2C(=O)Nc3ccc(I)cc32)c1` [10736/B04], the “Met Kinase % Inhibition (P.130)” value stood at 65.5%.

Turning to `Cc1ccc(C=C2C(=O)Nc3ccc(I)cc32)cc1` [10736/B05], the “Met Kinase % Inhibition (P.130)” value was 63.9%.

As for `O=C1Nc2ccc(I)cc2C1=Cc1cccc(Cl)c1` [10736/B06], the “Met Kinase % Inhibition (P.130)” value is reported as 60.6%.

In the case of `O=C1Nc2ccc(I)cc2C1=Cc1cccc(F)c1` [10736/B07], the “Met Kinase % Inhibition (P.130)” value is 87.2%.

Take `O=C1Nc2ccc(I)cc2C1=Cc1ccccc1F` [10736/B08]: the “Met Kinase % Inhibition (P.130)” value is 59.3%.

Regarding `CCc1ccc(C=C2C(=O)Nc3ccc(I)cc32)cc1` [10736/B09], the “Met Kinase % Inhibition (P.130)” value came out at 55.2%.

For `COc1cccc(C=C2C(=O)Nc3ccc(I)cc32)c1` [10736/B10], the “Met Kinase % Inhibition (P.130)” value was determined as 52.5%.

Regarding `O=C1Nc2ccc(I)cc2C1=Cc1ccccc1Cl` [10736/B11], the “Met Kinase % Inhibition (P.130)” value was 47.0%.

Regarding `Cc1c(Br)ccc2c1C(=Cc1ccc(Cl)cc1)C(=O)N2` [10736/C02], the “Met Kinase % Inhibition (P.130)” value was found to be 50.1%.

Consider `Cc1c(Br)ccc2c1C(=Cc1ccccc1C(F)(F)F)C(=O)N2` [10736/C03], for which the “Met Kinase % Inhibition (P.130)” value is 9.9%.

Take `Cc1cccc(C=C2C(=O)Nc3ccc(Br)c(C)c32)c1` [10736/C04]: the “Met Kinase % Inhibition (P.130)” value is 49.0%.

Consider `Cc1ccc(C=C2C(=O)Nc3ccc(Br)c(C)c32)cc1` [10736/C05], for which the “Met Kinase % Inhibition (P.130)” value came out at 44.6%.

As to `Cc1c(Br)ccc2c1C(=Cc1cccc(Cl)c1)C(=O)N2` [10736/C06], the “Met Kinase % Inhibition (P.130)” value stood at 45.2%.

Regarding `Cc1c(Br)ccc2c1C(=Cc1cccc(F)c1)C(=O)N2` [10736/C07], the “Met Kinase % Inhibition (P.130)” value was determined as 55.6%.

As for `Cc1c(Br)ccc2c1C(=Cc1ccccc1F)C(=O)N2` [10736/C08], the “Met Kinase % Inhibition (P.130)” value was found to be 49.2%.

With `CCc1ccc(C=C2C(=O)Nc3ccc(Br)c(C)c32)cc1` [10736/C09], the “Met Kinase % Inhibition (P.130)” value was determined as 27.9%.

As to `COc1cccc(C=C2C(=O)Nc3ccc(Br)c(C)c32)c1` [10736/C10], the “Met Kinase % Inhibition (P.130)” value came out at 18.7%.

With `Cc1c(Br)ccc2c1C(=Cc1ccccc1Cl)C(=O)N2` [10736/C11], the “Met Kinase % Inhibition (P.130)” value stood at 11.0%.

On to `CNS(=O)(=O)c1ccc2c(c1)C(=Cc1ccc(Cl)cc1)C(=O)N2` [10736/D02], for which the “Met Kinase % Inhibition (P.130)” value worked out at 44.4%.

On to `CNS(=O)(=O)c1ccc2c(c1)C(=Cc1ccccc1C(F)(F)F)C(=O)N2` [10736/D03], for which the “Met Kinase % Inhibition (P.130)” value was determined as 14.7%.

With `CNS(=O)(=O)c1ccc2c(c1)C(=Cc1cccc(C)c1)C(=O)N2` [10736/D04], the “Met Kinase % Inhibition (P.130)” value was 8.1%.

Take `CNS(=O)(=O)c1ccc2c(c1)C(=Cc1ccc(C)cc1)C(=O)N2` [10736/D05]: the “Met Kinase % Inhibition (P.130)” value worked out at 3.9%.

For `CNS(=O)(=O)c1ccc2c(c1)C(=Cc1cccc(Cl)c1)C(=O)N2` [10736/D06], the “Met Kinase % Inhibition (P.130)” value stood at 14.7%.

For `CNS(=O)(=O)c1ccc2c(c1)C(=Cc1cccc(F)c1)C(=O)N2` [10736/D07], the “Met Kinase % Inhibition (P.130)” value is listed as 15.4%.

As for `CNS(=O)(=O)c1ccc2c(c1)C(=Cc1ccccc1F)C(=O)N2` [10736/D08], the “Met Kinase % Inhibition (P.130)” value is on record as 13.0%.

On to `CCc1ccc(C=C2C(=O)Nc3ccc(S(=O)(=O)NC)cc32)cc1` [10736/D09], for which the “Met Kinase % Inhibition (P.130)” value was 14.1%.

For `CNS(=O)(=O)c1ccc2c(c1)C(=Cc1cccc(OC)c1)C(=O)N2` [10736/D10], the “Met Kinase % Inhibition (P.130)” value turned out to be 16.9%.

Turning to `CNS(=O)(=O)c1ccc2c(c1)C(=Cc1ccccc1Cl)C(=O)N2` [10736/D11], the “Met Kinase % Inhibition (P.130)” value was 22.6%.

Regarding `O=C1Nc2ccc(S(=O)(=O)Nc3ccc(C(F)(F)F)cc3)cc2C1=Cc1ccc(Cl)cc1` [10736/E02], the “Met Kinase % Inhibition (P.130)” value is given as 81.5%.

In the case of `O=C1Nc2ccc(S(=O)(=O)Nc3ccc(C(F)(F)F)cc3)cc2C1=Cc1ccccc1C(F)(F)F` [10736/E03], the “Met Kinase % Inhibition (P.130)” value was found to be 33.0%.

Consider `Cc1cccc(C=C2C(=O)Nc3ccc(S(=O)(=O)Nc4ccc(C(F)(F)F)cc4)cc32)c1` [10736/E04], for which the “Met Kinase % Inhibition (P.130)” value is reported as 61.8%.

With `Cc1ccc(C=C2C(=O)Nc3ccc(S(=O)(=O)Nc4ccc(C(F)(F)F)cc4)cc32)cc1` [10736/E05], the “Met Kinase % Inhibition (P.130)” value is recorded as 57.6%.

For the compound `O=C1Nc2ccc(S(=O)(=O)Nc3ccc(C(F)(F)F)cc3)cc2C1=Cc1cccc(Cl)c1` [10736/E06], the “Met Kinase % Inhibition (P.130)” value turned out to be 66.6%.

Consider `O=C1Nc2ccc(S(=O)(=O)Nc3ccc(C(F)(F)F)cc3)cc2C1=Cc1cccc(F)c1` [10736/E07], for which the “Met Kinase % Inhibition (P.130)” value stood at 45.9%.

`O=C1Nc2ccc(S(=O)(=O)Nc3ccc(C(F)(F)F)cc3)cc2C1=Cc1ccccc1F` [10736/E08]: the “Met Kinase % Inhibition (P.130)” value came out at 52.3%.

For `CCc1ccc(C=C2C(=O)Nc3ccc(S(=O)(=O)Nc4ccc(C(F)(F)F)cc4)cc32)cc1` [10736/E09], the “Met Kinase % Inhibition (P.130)” value was determined as 53.8%.

As for `COc1cccc(C=C2C(=O)Nc3ccc(S(=O)(=O)Nc4ccc(C(F)(F)F)cc4)cc32)c1` [10736/E10], the “Met Kinase % Inhibition (P.130)” value amounted to 37.8%.

On to `O=C1Nc2ccc(S(=O)(=O)Nc3ccc(C(F)(F)F)cc3)cc2C1=Cc1ccccc1Cl` [10736/E11], for which the “Met Kinase % Inhibition (P.130)” value is on record as 64.4%.

On to `O=C1Nc2ccc(S(=O)(=O)N3CCOCC3)cc2C1=Cc1ccc(Cl)cc1` [10736/F02], for which the “Met Kinase % Inhibition (P.130)” value came out at 69.4%.
